Experimental data: US20250215029A1 (Recludix Pharma, Inc., priority 2022, published 2025)
Where two headings read alike, the source gives them in different places.

Columns and labels:
pY641-STAT6 in PBMC = biological target: T1, pY641-STAT6 in PBMC (Homo sapiens, UniProt P42226); test: MSD-pSTAT-PBMC Assay (pSTAT6, IL-4 stimulated); type: cell-based; settings: compound 3 hrs, then 1 ng/mL IL-4 for 10 min
T1 construct: Cryopreserved Peripheral Blood Mononuclear Cells (PBMC) are from AllCells; host or cells: cryopreserved PBMC
T1 sequence (P42226 1-847): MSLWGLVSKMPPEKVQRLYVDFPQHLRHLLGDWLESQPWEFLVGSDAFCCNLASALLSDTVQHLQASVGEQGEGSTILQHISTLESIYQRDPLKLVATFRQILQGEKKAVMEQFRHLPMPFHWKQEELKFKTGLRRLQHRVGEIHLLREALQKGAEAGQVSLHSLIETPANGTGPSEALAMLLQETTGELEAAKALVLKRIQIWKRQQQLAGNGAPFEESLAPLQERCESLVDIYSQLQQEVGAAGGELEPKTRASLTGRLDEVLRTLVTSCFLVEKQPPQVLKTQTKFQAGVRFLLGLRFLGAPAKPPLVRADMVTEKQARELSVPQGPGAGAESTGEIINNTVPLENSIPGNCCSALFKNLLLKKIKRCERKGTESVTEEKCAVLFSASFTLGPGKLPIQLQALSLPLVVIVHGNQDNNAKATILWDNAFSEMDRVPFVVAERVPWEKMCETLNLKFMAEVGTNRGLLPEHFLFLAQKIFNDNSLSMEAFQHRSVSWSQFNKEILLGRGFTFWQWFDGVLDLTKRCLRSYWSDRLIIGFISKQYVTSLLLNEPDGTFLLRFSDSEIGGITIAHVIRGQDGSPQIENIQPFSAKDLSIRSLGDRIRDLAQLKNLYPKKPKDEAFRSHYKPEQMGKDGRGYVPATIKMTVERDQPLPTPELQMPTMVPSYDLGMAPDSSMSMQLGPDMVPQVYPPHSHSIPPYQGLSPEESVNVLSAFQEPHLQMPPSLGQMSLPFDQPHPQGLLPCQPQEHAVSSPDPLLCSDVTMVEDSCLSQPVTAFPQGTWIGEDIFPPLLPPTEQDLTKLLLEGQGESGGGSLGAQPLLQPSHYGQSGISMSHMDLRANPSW
How it was run: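 Cells are preincubated with compound for 3 hrs, then stimulated for 10 min, IL-4 at 1 ng/mL driving STAT6 phosphorylation and IL-6 at 10 ng/mL driving STAT3. Phospho-STAT in lysates is quantified by MSD immunoassay, and IC50 is fitted after subtracting unstimulated wells.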

pY705-STAT3 in PBMC = biological target: T2, pY705-STAT3 in PBMC (Homo sapiens, UniProt P40763); test: MSD-pSTAT-PBMC Assay (pSTAT3, IL-6 stimulated); type: cell-based; settings: PBMC, compound 3 hrs, then 10 ng/mL IL-6 for 10 min
T2 construct: Cryopreserved Peripheral Blood Mononuclear Cells (PBMC) are from AllCells; host or cells: cryopreserved PBMC
How it was run: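 Inhibition of cytokine-induced STAT phosphorylation was measured in recovered human PBMC after 3 hrs compound exposure and a 10 min IL-4 (1 ng/mL) or IL-6 (10 ng/mL) challenge. MSD detection of pY641-STAT6 or pY705-STAT3 yielded IC50 values.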

[1] = PBMC, Table 1114, read-out: pSTAT6

T2 sequence (P40763 whole entry): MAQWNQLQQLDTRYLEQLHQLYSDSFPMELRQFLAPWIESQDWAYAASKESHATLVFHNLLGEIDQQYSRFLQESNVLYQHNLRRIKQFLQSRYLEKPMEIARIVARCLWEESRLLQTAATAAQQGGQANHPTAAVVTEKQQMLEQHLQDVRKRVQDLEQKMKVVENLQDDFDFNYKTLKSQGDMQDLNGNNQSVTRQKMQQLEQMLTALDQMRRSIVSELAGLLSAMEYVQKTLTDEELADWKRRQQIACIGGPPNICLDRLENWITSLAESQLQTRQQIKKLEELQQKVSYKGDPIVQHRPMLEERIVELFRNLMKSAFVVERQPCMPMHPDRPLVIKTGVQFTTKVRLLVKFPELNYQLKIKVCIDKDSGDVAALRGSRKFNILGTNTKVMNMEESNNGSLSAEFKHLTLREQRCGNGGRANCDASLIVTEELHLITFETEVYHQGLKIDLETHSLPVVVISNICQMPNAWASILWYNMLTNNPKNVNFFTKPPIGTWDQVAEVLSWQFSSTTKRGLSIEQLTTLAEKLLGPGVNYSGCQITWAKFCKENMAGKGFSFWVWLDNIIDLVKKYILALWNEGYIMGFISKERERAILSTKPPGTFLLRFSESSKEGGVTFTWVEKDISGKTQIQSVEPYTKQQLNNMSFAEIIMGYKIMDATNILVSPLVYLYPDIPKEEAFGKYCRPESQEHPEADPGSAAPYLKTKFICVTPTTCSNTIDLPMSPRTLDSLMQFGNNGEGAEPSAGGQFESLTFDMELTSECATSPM

| IC50 (pY641-STAT6 in PBMC; [1]) [nM] | IC50 (pY705-STAT3 in PBMC; Table 1114, read-out: pSTAT3) [nM] | SMILES | IC50 (pY641-STAT6 in PBMC; STAT6, PBMC, Table 115) [nM] | IC50 (pY705-STAT3 in PBMC; Table 115, read-out: STAT3) [nM] | IC50 (pY641-STAT6 in PBMC; pSTAT6, PBMC, Table 1114) [nM] |
| --- | --- | --- | --- | --- | --- |
| < 100 | 1000 to 3000 | CC(C)(C)C(=O)OCOP(=O)(OCOC(=O)C(C)(C)C)C(F)(F)c1ccc2sc(C(=O)N[C@H]3CCCCC[C@H]4CC[C@@H](C(=O)N5C[C@@H](C#N)[C@H](c6ccccc6)C5)N4C3=O)cc2c1 (relative stereo) [Compound 146, ((((2-(((3S,6S,11aS)-3-(rel-(trans)-3-cyano-4-phenylpyrrolidine-1-carbonyl)-5-oxodecahydro-1H-pyrrolo[1,2-a]azonin-6-yl)carbamoyl)benzo[b]thiophen-5-yl)difluoromethyl)phosphoryl)bis (oxy))bis(methylene) bis(2,2-dimethyl-propanoate)] | – | – | – |
| – | – | CCCOC(=O)[C@H](C)NP(=O)(Oc1ccccc1)C(F)c1ccc2sc(C(=O)N[C@H]3C[C@H](C)C[C@H]4CC[C@@H](C(=O)N5CC(c6cnccc6F)C5)N4C3=O)cc2c1 (stereo partly drawn) [Compound 263, propyl ((fluoro(2-(((3S,6S,8S,9aR)-3-(3-(4-fluoropyridin-3-yl)azetidine-1-carbonyl)-8-methyl-5-oxooctahydro-1H-pyrrolo[1,2-a]azepin-6-yl)carbamoyl)benzo [b]thiophen-5-yl)methyl)(phenoxy)phosphoryl)-L-alaninate] | > 3000 | < 100 | – |
| 100 to 1000 | < 100 | CC(C)(C)C(=O)OCOP(=O)(OCOC(=O)C(C)(C)C)C(F)(F)c1ccc2sc(C(=O)N[C@H]3CCC[C@H]4CC[C@@H](C(=O)N5CC(c6ccccn6)C5)N4C3=O)cc2c1 [Compound 188, (((difluoro(2-(((3S,6S,9aS)-5-oxo-3-(3-(pyridin-2-yl)azetidine-1-carbonyl)octahydro-1H-pyrrolo[1,2-a]azepin-6-yl)carbamoyl)benzo[b]thiophen-5-yl)methyl)phosphoryl)bis (oxy))bis (methylene) bis(2,2-dimethyl-propanoate)] | – | – | – |
| > 3000 | 100 to 1000 | CC(C)(C)C(=O)OCOP(=O)(OCOC(=O)C(C)(C)C)C(F)(F)c1ccc2sc(C(=O)N[C@H]3CCC[C@H]4CCC[C@@H](C(=O)N5CC(n6ccnc6)C5)N4C3=O)cc2c1 [Compound 173, ((((2-(((4S,7S,10aS)-4-(3-(1H-imidazol-1-yl)azetidine-1-carbonyl)-6-oxodecahydropyrido [1,2-a]azepin-7-yl)carbamoyl)benzo[b]thiophen-5-yl)difluoromethyl)phosphoryl)bis(oxy)) bis(methylene) bis(2,2-dimethylpropanoate)] | – | – | – |
| < 100 | > 3000 | CC(C)CC(=O)SCCOP(=O)(OCCSC(=O)CC(C)C)C(F)(F)c1ccc2sc(C(=O)N[C@H]3CCCCC4CC[C@@H](C(=O)N5C[C@H](c6ccccc6)[C@@H](C#N)C5)N4C3=O)cc2c1 (single isomer, unassigned) [Compound 163, S,S′-(((((2-(((3S,6S,10aS)-3-((3R,4S or 3S,4R)-3-cyano-4-phenylpyrrolidine-1-carbonyl)-5-oxodecahydro-pyrrolo[1,2-a]azocin-6-yl)carbamoyl)benzo[b]thiophen-5-yl)difluoromethyl)phosphoryl)bis(oxy))bis(ethane-2,1-diyl)) bis(3-methylbutane thioate)] | – | – | – |
| – | – | CCCOC(=O)[C@H](C)NP(=O)(Cc1ccc2ccc(C(=O)N[C@H]3CCCC[C@H]4CC[C@@H](C(=O)N5C[C@@H](c6cc[nH]c(=O)c6)CC56CC6)N4C3=O)cc2c1)Oc1ccccc1 (stereo partly drawn) [Compound 409, propyl (((7-(((3S,6S,10aS)-5-oxo-3-((R)-6-(2-oxo-1,2-dihydropyridin-4-yl)-4-azaspiro[2.4]heptane-4-carbonyl)decahydropyrrolo[1,2-a]azocin-6-yl)carbamoyl)naphthalen-2-yl)methyl)(phenoxy)phosphoryl)-L-alaninate] | 1000 to 3000 | > 3000 | – |
| 100 to 1000 | > 3000 | CC(C)CC(=O)SCCOP(=O)(OCCSC(=O)CC(C)C)C(F)(F)c1ccc2ccc(C(=O)N[C@H]3CCCCC[C@H]4[C@H](O)C[C@@H](C(=O)N5CC(C#N)C(c6cc[nH]c(=O)c6)C5)N4C3=O)cc2c1 (single isomer, unassigned) [Compound 167, S,S′-(((((7-(((1R,3S,6S,11aS)-3-((3S,4R or 3R,4S)-3-cyano-4-(2-oxo-1,2-dihydropyridin-4-yl)pyrrolidine-1-carbonyl)-1-hydroxy-5-oxodecahydropyrrolo [1,2-a]azocin-6-yl)carbamoyl)naphthalen-2-yl)difluoromethyl)phosphoryl)bis(oxy))bis(ethane-2,1-diyl)) bis(3-methylbutane thioate)] | – | – | – |
| – | – | CCCOC(=O)[C@H](C)NP(=O)(Oc1ccccc1)C(F)c1ccc2sc(C(=O)N[C@H]3C[C@@H](C)C[C@H]4CC[C@@H](C(=O)N5CC(c6cnccc6F)C5)N4C3=O)cc2c1 (stereo partly drawn) [Compound 292, propyl ((fluoro(2-(((3S,6S,8R,9aR)-3-(3-(4-fluoropyridin-3-yl)azetidine-1-carbonyl)-8-methyl-5-oxooctahydro-1H-pyrrolo[1,2-a]azepin-6-yl)carbamoyl)benzo [b]thiophen-5-yl)methyl)(phenoxy)phosphoryl)-L-alaninate] | > 3000 | < 100 | – |
| > 3000 | < 100 | CC(C)CC(=O)SCCOP(=O)(OCCSC(=O)CC(C)C)C(F)(F)c1ccc2sc(C(=O)N[C@H]3CCCC(C)[C@H]4CC[C@@H](C(=O)N5CC(c6cccnc6)C5)N4C3=O)cc2c1 (stereo partly drawn) [Compound 161, S,S′-((((difluoro(2-(((3S,6S,10aR)-10-methyl-5-oxo-3-(3-(pyridin-3-yl)azetidine-1-carbonyl)decahydropyrrolo [1,2-a]azocin-6-yl)carbamoyl)benzo[b]thiophen-5-yl)methyl)phosphoryl)bis(oxy))bis(ethane-2,1-diyl)) bis(3-methylbutane thioate)] | – | – | – |

| SMILES | IC50 (pY641-STAT6 in PBMC; [1]) [nM] | IC50 (pY705-STAT3 in PBMC; Table 1114, read-out: pSTAT3) [nM] | IC50 (pY641-STAT6 in PBMC; STAT6, PBMC, Table 115) [nM] | IC50 (pY705-STAT3 in PBMC; Table 115, read-out: STAT3) [nM] | IC50 (pY641-STAT6 in PBMC; pSTAT6, PBMC, Table 1114) [nM] |
| --- | --- | --- | --- | --- | --- |
| CCCC(=O)SCCOP(=O)(Oc1cccnc1)C(F)(F)c1ccc2sc(C(=O)N[C@H]3CCCC[C@H]4CC[C@@H](C(=O)N5C[C@@H](C#N)[C@H](c6ccccc6)C5)N4C3=O)cc2c1 (single isomer, unassigned) [Compound 139, S-(2-((((2-(((3S,6S,10aS)-3-((3S,4R or 3R,4S)-3-cyano-4-phenylpyrrolidine-1-carbonyl)-5-oxodecahydro-pyrrolo[1,2-a]azocin-6-yl)carbamoyl)benzo[b]thiophen-5-yl)difluoromethyl) (pyridin-3-yloxy)phosphoryl)oxy)ethyl) butanethioate] | – | 100 to 1000 | – | – | < 100 |
| CCCC(=O)SCCOP(=O)(Oc1ccccc1)C(F)(F)c1ccc2sc(C(=O)N[C@H]3CCCC[C@H]4CC[C@@H](C(=O)N5C[C@H](c6ccccc6)[C@@H](C#N)C5)N4C3=O)cc2c1 (single isomer, unassigned) [Compound 128, S-(2-((((2-(((3S,6S,10aS)-3-((3R,4S or 3S,4R)-3-cyano-4-phenylpyrrolidine-1-carbonyl)-5-oxodecahydro-pyrrolo[1,2-a]azocin-6-yl)carbamoyl)benzo[b]thiophen-5-yl)difluoromethyl) (phenoxy)phosphoryl)oxy)ethyl) butanethioate] | – | > 3000 | – | – | 100 to 1000 |
